According to publication PMC12038163 (Research, 2025):

Test: in vivo
Conditions: male, Sprague-Dawley, rat, ip, 10 mg/kg

SMILES: Cc1cccc(-c2ccc(-c3cc4cnc(NC5CC5)nc4n(CCCCCC(=O)NO)c3=O)c(Cl)c2)n1 [ZMF-25]
- AUC(0-inf): 9100 ng·h/mL
- AUC(0-t): 9070 ng·h/mL
- CL/F: 30 mL/min/kg
- Cmax: 5110 ng/mL
- half-life: 1.4 ± 0.3 h
